Assay results taken from a compilation of properties of binary mixtures (doi:10.1021/jp2012254).

Assay: xn = mol fraction of the nth substance listed
Conditions: 298 K, 101 kPa

CCCC[n+]1ccn(C)c1.O=S(=O)([N-]S(=O)(=O)C(F)(F)F)C(F)(F)F + CCCCO
Conditions	electrical conductivity [S/m]	viscosity [mPa·s]
x2 = 0.0121	0.408	–
x2 = 0.1048	–	41.5
x2 = 0.1229	0.477	–
x2 = 0.3394	0.578	–
x2 = 0.3437	–	22.9
x2 = 0.4228	0.633	–
x2 = 0.4428	0.667	–
x2 = 0.5066	–	15.2
x2 = 0.518	0.677	–
x2 = 0.545	0.677	–
x2 = 0.5556	0.676	–
x2 = 0.5882	0.675	–
x2 = 0.608	0.674	–
x2 = 0.6656	0.66	–
x2 = 0.6796	0.67	–
x2 = 0.7193	–	8.92
x2 = 0.7316	0.59	8.55
x2 = 0.7458	0.57	–
x2 = 0.7645	0.56	–
x2 = 0.7951	0.507	–
x2 = 0.8487	0.401	–
x2 = 0.8618	–	5.83
x2 = 0.878	0.349	–

CO + CCCC[n+]1ccn(C)c1.O=S(=O)([N-]S(=O)(=O)C(F)(F)F)C(F)(F)F
Conditions	viscosity [mPa·s]
x1 = 1	0.544

CC(C)(C)O + CCCC[n+]1ccn(C)c1.O=S(=O)([N-]S(=O)(=O)C(F)(F)F)C(F)(F)F
Conditions	electrical conductivity [S/m]	viscosity [mPa·s]
x1 = 0.2367	–	35.8
x1 = 0.3616	0.485	–
x1 = 0.401	0.488	–
x1 = 0.4577	0.497	–
x1 = 0.4791	0.5	–
x1 = 0.5125	0.503	–
x1 = 0.5277	–	20.8
x1 = 0.538	0.507	–
x1 = 0.5851	0.505	–
x1 = 0.7215	0.476	–
x1 = 0.785	0.377	–
x1 = 1	–	3.41

CCCCO + CCCC[n+]1ccn(C)c1.O=S(=O)([N-]S(=O)(=O)C(F)(F)F)C(F)(F)F
Conditions	viscosity [mPa·s]
x1 = 1	2.6

CCCC[n+]1ccn(C)c1.O=S(=O)([N-]S(=O)(=O)C(F)(F)F)C(F)(F)F + CC(C)(C)O
Conditions	viscosity [mPa·s]
x2 = 0	50.4

ClCCl + CCCC[n+]1ccn(C)c1.O=S(=O)([N-]S(=O)(=O)C(F)(F)F)C(F)(F)F
Conditions	electrical conductivity [S/m]	viscosity [mPa·s]
x1 = 0.0175	0.453	–
x1 = 0.1758	–	33.7
x1 = 0.243	0.454	–
x1 = 0.3232	–	21.8
x1 = 0.3949	0.464	–
x1 = 0.4152	0.539	–
x1 = 0.4391	–	15.41
x1 = 0.4625	0.586	–
x1 = 0.4718	0.634	–
x1 = 0.5413	0.657	–
x1 = 0.5646	–	10.01
x1 = 0.6165	1.08	–
x1 = 0.6861	1.18	–
x1 = 0.7283	–	4.25
x1 = 0.7345	1.33	–
x1 = 0.7725	1.47	–
x1 = 0.7751	1.37	–
x1 = 0.776	1.47	–
x1 = 0.8389	1.46	–
x1 = 0.9008	1.21	–
x1 = 0.9319	0.95	–
x1 = 0.9506	0.739	–
x1 = 0.9696	0.46	–
x1 = 1	–	0.433
x2 = 0.0163	0.242	–
x2 = 0.0187	0.287	–

CCCC[n+]1ccn(C)c1.O=S(=O)([N-]S(=O)(=O)C(F)(F)F)C(F)(F)F + CO
Conditions	electrical conductivity [S/m]	viscosity [mPa·s]
x1 = 0.0104	0.94	–
x1 = 0.0197	–	0.71
x2 = 0	–	50.4
x2 = 0.0302	0.524	46.2
x2 = 0.0942	0.509	–
x2 = 0.1177	0.549	–
x2 = 0.1279	0.509	–
x2 = 0.1577	–	35.8
x2 = 0.16	–	34.2
x2 = 0.1706	0.514	–
x2 = 0.2298	–	28.8
x2 = 0.3938	0.651	–
x2 = 0.432	0.99	–
x2 = 0.5555	1.18	–
x2 = 0.6132	1.74	–
x2 = 0.6242	–	8.27
x2 = 0.662	1.89	–
x2 = 0.6647	1.96	–
x2 = 0.7009	2.12	–
x2 = 0.7546	2.28	–
x2 = 0.7799	2.29	–
x2 = 0.7983	2.45	–
x2 = 0.8188	2.49	–
x2 = 0.8248	–	2.61
x2 = 0.8272	2.51	–
x2 = 0.8805	2.58	–
x2 = 0.8953	–	1.47
x2 = 0.9305	2.42	–
x2 = 0.9462	2.23	–
x2 = 0.9721	1.73	–

CCCC[n+]1ccn(C)c1.O=S(=O)([N-]S(=O)(=O)C(F)(F)F)C(F)(F)F + O
Conditions	electrical conductivity [S/m]	viscosity [mPa·s]
x2 = 0.0012	0.416	–
x2 = 0.0014	0.412	–
x2 = 0.0053	0.412	–
x2 = 0.0135	0.431	–
x2 = 0.0273	0.444	–
x2 = 0.0442	–	46.9
x2 = 0.0533	0.444	–
x2 = 0.0737	0.466	–
x2 = 0.0832	–	42.8
x2 = 0.1171	0.494	–
x2 = 0.1253	–	37.2
x2 = 0.1429	–	35.4
x2 = 0.1439	0.52	–
x2 = 0.1721	–	36
x2 = 0.1733	0.549	–
x2 = 0.2119	0.583	–
x2 = 0.2222	–	33.1
x2 = 0.2436	0.61	–
x2 = 0.2523	0.599	–
x2 = 0.2556	–	31
x2 = 0.2559	0.614	–

CCCC[n+]1ccn(C)c1.O=S(=O)([N-]S(=O)(=O)C(F)(F)F)C(F)(F)F + CC#N
Conditions	electrical conductivity [S/m]	viscosity [mPa·s]
x2 = 0.1027	0.514	–
x2 = 0.1028	–	39.6
x2 = 0.1514	0.567	–
x2 = 0.2513	0.72	–
x2 = 0.3638	–	17.8
x2 = 0.4169	1.08	–
x2 = 0.5016	1.37	–
x2 = 0.5238	–	9.4
x2 = 0.8396	3.67	–
x2 = 0.9485	4.03	–
x2 = 0.9667	3.41	–
x2 = 0.9794	2.69	–

CC#N + CCCC[n+]1ccn(C)c1.O=S(=O)([N-]S(=O)(=O)C(F)(F)F)C(F)(F)F
Conditions	viscosity [mPa·s]
x1 = 1	0.37
